Experimental findings from patent US5674876A, “.rho.-heteroatom-substituted phenols and uses thereof” (Research Development Foundation, priority 1995, dated 1997) are described below.

Type in all cases: cell-based
The test system of experiment [1] is MDA MB 435 (Metastic Human Breast Cancer Cell Line). Kind of experiment: Inhibition of DNA synthesis (3H-TdR uptake) / proliferation, MB-435. The note with it: for inhibition at 0.1 µg/mL / inhibition at 1 µg/mL / inhibition at 5 µg/mL / inhibition at 10 µg/mL / inhibition at 20 µg/mL: Homo sapiens, MDA-MB-435, 48 h; for inhibition at 0.1 µg/mL: MB-435, 0.1 μg/mL; for inhibition at 1 µg/mL: MB-435, 1 μg/mL. The method, then:
(§1) Cells were cultured in the following media: 1) MDA MB 435 cells were cultured in Minimum Essential Media (MEM-HyClone, Logan, Utah) supplemented with 5% heat inactivated fetal bovine serum (HyClone), 2 mM glutamine (Sigma, St. Louis, Mo.), 1 mM sodium pyruvate (Sigma), 1X MEM Non-Essential Amino Acids (Sigma), 2X MEM Vitamins (Sigma), and 100 IU/mL penicillin/100 μg/mL streptomycin (HyClone); 2) MCF-7 McGuire cells were cultured in Minimum Essential Media (MEM-HyClone, Logan, Utah) supplemented with 5% heat inactivated fetal bovine serum (HyClone), 2 mM glutamine (Sigma, St. Louis, Mo.), and 100 IU/mL penicillin/100 μg/mL streptomycin (HyClone); 3) HL-60 cells were cultured in Iscoves Modified Dulbecco's Media (IMDM-HyClone, Logan, Utah) supplemented with 5% heat inactivated fetal bovine serum (HyClone), 2 mM glutamine (Sigma, St. Louis, Mo.), 1 mM sodium pyruvate (Sigma), 1X MEM Non-Essential Amino Acids (Sigma), 2X MEM Vitamins (Sigma), and 100 IU/mL penicillin/100 μg/mL streptomycin (HyClone); 2) MCF-7 McGuire cells were cultured in Minimum Essential Media (MEM-HyClone, Logan, Utah) supplemented with 5% heat inactivated fetal bovine serum (HyClone), 2 mM glutamine (Sigma, St. Louis, Mo.), and 100 IU/mL penicillin/100 μg/mL streptomycin (HyClone); 3) HL-60 cells were cultured in Iscoves Modified Dulbecco's Media (IMDM-HyClone, Logan, Utah) supplemented with 5% heat inactivated fetal bovine serum (HyClone), 2 mM glutamine (Sigma, St. Louis, Mo.), and 100 IU/mL penicillin/100 μg/mL streptomycin (HyClone).
(§2) All compounds were handled as if they were light sensitive. All compounds were initially dissolved in absolute ethanol and subsequently diluted to a final concentration of 0.5% ethanol with the appropriate medium.
(§3) For the bioassay, all cells were used at 2.5×10^5 /mL. Cells were treated with each of the compounds at concentrations of 20, 10, 5, 1, 0.1, and 0.01 μg/mL , and 200 μl of each treatment group were plated in quadruplicate in a 96 well culture plate (Corning, Corning N.Y.). Plates were done in duplicate, one plate to be used for viability testing and the other plate to examine ^3 H-TdR uptake (DNA synthesis).
(§4) Plates were cultured for 48 hours at 37° C., 5% CO2. Eight hours prior to the end of incubation, ^3 H-TdR was added to one of the duplicate plates and incubation continued for 8 hours. The cells were then harvested (trypsinization was required to harvest MDA MB 435 and MCF-7 McGuire). At the end of the incubation, the cells were removed from the wells (of the duplicate plate--no radioisotope added) and viability checked by the Trypan Blue Exclusion method. Percent viability and percent suppression of each treatment group were calculated.
(§5) With respect to the data shown in the Tables below, the data is arranged from greatest percent inhibition of DNA synthesis to lowest. […] "NT" refers to "Not Tested". The cells were cultured for 48 hours, pulsed 8 hours with tritiated thymidine, harvested and counted. MDA MB 435 is the abbreviation for the Metastic Human Breast Cancer Cell Line. MCF-7 McGuire is the abbreviation for the Estrogen Responsive Human Breast Cancer Cell Line and HL-60 is the Human Promyelocytic Leukemia Cell Line.

Experiment [2] has as its system HL-60 (Human Promyelocytic Leukemia Cell Line). Nature of the experiment: Inhibition of DNA synthesis (3H-TdR uptake) / proliferation, HL-60. The following applies: for inhibition at 0.1 µg/mL / inhibition at 1 µg/mL / inhibition at 5 µg/mL / inhibition at 10 µg/mL / inhibition at 20 µg/mL: Homo sapiens, 48 h; for inhibition at 0.1 µg/mL: HL-60, 0.1 μg/mL; for inhibition at 1 µg/mL: HL-60, 1 μg/mL; for inhibition at 10 µg/mL: HL-60, 10 μg/mL. As to the method: as §1, §2, §3, §4, §5

Experiment [3] concerns MCF-7 McGuire (Estrogen Responsive Human Breast Cancer Cell Line). Kind of experiment: Inhibition of DNA synthesis (3H-TdR uptake) / proliferation, MCF-7. The following applies: for inhibition at 0.1 µg/mL / inhibition at 1 µg/mL / inhibition at 5 µg/mL / inhibition at 10 µg/mL / inhibition at 20 µg/mL: Homo sapiens, MCF7, 48 h; for inhibition at 0.1 µg/mL: MCF-7, 0.1 μg/mL; for inhibition at 1 µg/mL: MCF-7, 1 μg/mL; for inhibition at 20 µg/mL: MCF-7, 20 μg/mL. The method, then: as §1, §2, §3, §4, §5

For the compound `Cc1cc2c(c(C)c1O)C(C)CN2C(=O)C(C)C` (centres unmarked) [Compound 11b, N-Isobutyryl-5-hydroxy-3,4,6-trimethylindoline], the inhibition at 0.1 µg/mL was determined as 0% in experiment [1], 0% in experiment [2] and 24% in experiment [3]. The values for the inhibition at 1 µg/mL in experiment [1], in experiment [2] and in experiment [3] were 21%, 0% and 26%, respectively. Besides, the inhibition at 5 µg/mL in experiment [1] (MB-435, 5 μg/mL) was 21%; in experiment [2] (HL-60, 5 μg/mL), 0%; in experiment [3] (MCF-7, 5 μg/mL) it was 47%. Moreover, the inhibition at 10 µg/mL in experiment [1] (MB-435, 10 μg/mL) amounted to 22%; in experiment [2] it was 0%; in experiment [3] (MCF-7, 10 μg/mL), 33%. Further, the inhibition at 20 µg/mL in experiment [1] (MB-435, 20 μg/mL) was 36%; in experiment [2] (HL-60, 20 μg/mL) it was 0%; in experiment [3], 53%. Besides, the “inhibition of proliferation (in words)” value is reported as “significantly inhibited the proliferation” in experiment [1] (MB-435, 10 μg/mL) and “significantly inhibited the proliferation” in experiment [3] (MCF-7, 5 μg/mL). The “effect on HL-60 cells (in words)” value in experiment [2] (HL-60, no dose stated) is on record as “virtually no effect”.

For the compound `COc1c(C)cc2c(c1C)C(C)CN2C(=O)C(C)C` (centres unmarked) [Compound 13, N-Isobutyryl-5-methoxy-3,4,6-trimethylindoline], the inhibition at 0.1 µg/mL in experiment [1] came out at 4%; in experiment [2] it was 0%. The inhibition at 1 µg/mL in experiment [1] was -4%; in experiment [2], 10%. Moreover, the inhibition at 5 µg/mL in experiment [1] (MB-435, 5 μg/mL) was 8%; in experiment [2] (HL-60, 5 μg/mL), 15%. Also, the inhibition at 10 µg/mL in experiment [1] (MB-435, 10 μg/mL) amounted to 17%; in experiment [2], 27%. Further, the inhibition at 20 µg/mL in experiment [1] (MB-435, 20 μg/mL) worked out at 45%; in experiment [2] (HL-60, 20 μg/mL) it was 53%. In addition, the “inhibition of proliferation (in words)” value in experiment [1] (MB-435, 20 μg/mL) was “inhibited the proliferation”; in experiment [2] (HL-60, 20 μg/mL), “inhibited the proliferation”.

For `Cc1cc2c(c(C)c1O)C(C)CN2C(=O)C(C)(C)C` (centres unmarked) [Compound 11c, N-Pivaloyl-5-hydroxy-3,4,6-trimethylindoline], the inhibition at 0.1 µg/mL stood at 13% in experiment [1], 0% in experiment [2] and 18% in experiment [3]. In addition, the inhibition at 1 µg/mL worked out at 12% in experiment [1], 0% in experiment [2] and 1% in experiment [3]. The inhibition at 5 µg/mL in experiment [1] (MB-435, 5 μg/mL) was 20%; in experiment [2] (HL-60, 5 μg/mL), 0%; in experiment [3] (MCF-7, 5 μg/mL) it was 9%. Also, the inhibition at 10 µg/mL in experiment [1] (MB-435, 10 μg/mL) worked out at 12%; in experiment [2], 0%; in experiment [3] (MCF-7, 10 μg/mL), 31%. Further, the inhibition at 20 µg/mL in experiment [1] (MB-435, 20 μg/mL) came to 31%; in experiment [2] (HL-60, 20 μg/mL) it was 0%; in experiment [3], 43%.

As to `CC(C)(C)c1cc2c(c(C(C)(C)C)c1O)CC(=O)O2` [Compound 24, 4,6-Di-tert-butyl-2,3-dihydro-5-hydroxy-2(3H)-benzofuranone], the figures for the inhibition at 0.1 µg/mL in experiment [1], in experiment [2] and in experiment [3] were 13%, 7% and 0%, respectively. Also, the inhibition at 1 µg/mL in experiment [1] worked out at 5%; in experiment [2], 0%; in experiment [3], 4%. Further, the inhibition at 5 µg/mL in experiment [1] (MB-435, 5 μg/mL) is 29%; in experiment [2] (HL-60, 5 μg/mL) it was 5%; in experiment [3] (MCF-7, 5 μg/mL), 25%. The inhibition at 10 µg/mL in experiment [1] (MB-435, 10 μg/mL) came to 85%; in experiment [2], 30%; in experiment [3] (MCF-7, 10 μg/mL) it was 85%. The inhibition at 20 µg/mL in experiment [1] (MB-435, 20 μg/mL) stood at 97%; in experiment [2] (HL-60, 20 μg/mL), 47%; in experiment [3], 97%. Besides, the “inhibition of proliferation (in words)” value was “significantly inhibited the proliferation” in experiment [1] (MB-435, 10 μg/mL); “significantly inhibited the proliferation” in experiment [2] (HL-60, 20 μg/mL); “significantly inhibited the proliferation” in experiment [3] (MCF-7, 10 μg/mL).

On to `Cc1c(O)c(C)c2c(C)cn(C(=O)C(C)(C)C)c2c1C` [Compound 27, N-Pivaloyl-5-hydroxy-3,4,6,7-tetramethylindole], for which the inhibition at 0.1 µg/mL in experiment [1] is 4%; in experiment [2], 0%; in experiment [3] it was 0%. In addition, the inhibition at 1 µg/mL in experiment [1] came to 15%; in experiment [2] it was 12%; in experiment [3] it was 14%. Also, the inhibition at 5 µg/mL in experiment [1] (MB-435, 5 μg/mL) is 54%; in experiment [2] (HL-60, 5 μg/mL), 61%; in experiment [3] (MCF-7, 5 μg/mL) it was 57%. In addition, the inhibition at 10 µg/mL in experiment [1] (MB-435, 10 μg/mL) was 91%; in experiment [2], 91%; in experiment [3] (MCF-7, 10 μg/mL), 86%. Further, the inhibition at 20 µg/mL in experiment [1] (MB-435, 20 μg/mL) was found to be 97%; in experiment [2] (HL-60, 20 μg/mL), 97%. Further, the “inhibition of proliferation (in words)” value in experiment [1] (MB-435, 5 μg/mL) is on record as “significantly inhibited the proliferation”; in experiment [2] (HL-60, 5 μg/mL), “significantly inhibited the proliferation”; in experiment [3] (MCF-7, 5 μg/mL) it was “significantly inhibited the proliferation”.

On to `CC(=O)N1CC(C)(C)c2c1cc(C)c(O)c2C` [Compound 16, N-Acetyl-5-hydroxy-3,3,4,6-tetramethylindoline], for which the inhibition at 0.1 µg/mL in experiment [1] and in experiment [2] was 0% each time. Besides, the inhibition at 1 µg/mL in experiment [1] turned out to be 1%; in experiment [2], 0%. The inhibition at 5 µg/mL in experiment [1] (MB-435, 5 μg/mL) turned out to be 9%; in experiment [2] (HL-60, 5 μg/mL), 11%. Moreover, the inhibition at 10 µg/mL in experiment [1] (MB-435, 10 μg/mL) came out at 18%; in experiment [2], 11%. The inhibition at 20 µg/mL came out at 31% in experiment [1] (MB-435, 20 μg/mL) and 15% in experiment [2] (HL-60, 20 μg/mL). Further, the “inhibition of proliferation (in words)” value in experiment [1] (MB-435, 5-20 μg/mL) was “significantly inhibited the proliferation”; in experiment [2] (HL-60, 5-20 μg/mL) it was “significantly inhibited the proliferation”.

As to `Cc1cc2c(c(C)c1O)C(C)(C)CN2C(=O)C(C)(C)C` [Compound 20, N-Pivaloyl-5-hydroxy-3,3,4,6-tetramethylindoline], the inhibition at 0.1 µg/mL is -1% in experiment [1] and 2% in experiment [2]. In addition, the inhibition at 1 µg/mL in experiment [1] was -5%; in experiment [2], 6%. The inhibition at 5 µg/mL in experiment [1] (MB-435, 5 μg/mL) is -1%; in experiment [2] (HL-60, 5 μg/mL), 18%. In addition, the inhibition at 10 µg/mL in experiment [1] (MB-435, 10 μg/mL) is -13%; in experiment [2], 33%. Moreover, the inhibition at 20 µg/mL in experiment [1] (MB-435, 20 μg/mL) came to 31%; in experiment [2] (HL-60, 20 μg/mL), 63%. For the same compound, the “inhibition of proliferation (in words)” value in experiment [1] (MB-435, 20 μg/mL) is “inhibited the proliferation”; in experiment [2] (HL-60, 20 μg/mL), “inhibited the proliferation”.

What is called inhibition is the change of the read-out against control, counted positive when it falls.
